From patent US8871900B2, “Fibroblast growth factor (FGF) analogs and uses thereof” (University of Rochester, priority 2008, dated 2014) come the findings set out here.

Structures are written as SMILES. Entries after “also recorded” stand apart in the source; their conditions may differ. Peptide text beside a SMILES is read from it. Some results are limits rather than exact numbers.

The test system of one data set is BM cells. Put plainly: BM cell growth in round-bottom 96 well 2 D culture (CyQUANT). As to conditions: FGF-P 500 ng/ml. Type of data set: cell-based, mouse (Balb/c). The text has this: Survival of ARS depends on rapid reconstitution of hematopoiesis after IR-induced myelosuppression. […] However, the timing and mechanism of effect on BM stem cells is unknown. Also unclear are the number of FGFRs on hematopoietic stem cells (HSCs) and their role in reconstitution after IR. […] To characterize the effects of FGF-P on BM, the study approach was to obtain fresh BM (including both HSCs and MSCs) from Balb/c mice, and culture it under varying conditions (3 D culture or 2 D round-bottom well) in triplicate for 1-3 weeks. The BM cells were stimulated with FGF-P at different doses (as test) or with EPO, TPO, GM-CSF or native FGF2 (as a positive control). The cultures were examined using several methods including colony count, photography, CyQUANT® assay and ^3H-TdR incorporation.

In data set [1] the test system is Balb/c mice exposed to TBI. Nature of the data set: Survival after TBI (BM syndrome / ARS). Type of data set: in vivo, mouse (Balb/c). Conditions: for mice survived: Balb/c.
The next data set can be described thus: Stability of FGF-P. Type of data set: physicochemical.
A further data set deals with GM-CSF. Nature of the data set: Plasma cytokine arrays after IR. In kind it is in vivo, mouse. Conditions: post-IR. The text has this:
A 96 cytokine membrane array (RayBioTech, Norcross, Ga.) and a Luminex Multiple cytokine beads array (Panomics, Fremont, Calif.) were used to determine the alteration of a panel of plasma cytokines after IR and the effect of FGF-P on reversing the altered pattern. […]-P also exerts homeostatic effect to keep cytokine level towards normal balance.

In a further data set the test system is BM progenitors. Put plainly: BM progenitors (CD24, CD34) by flow cytometry after in vivo FGF-P. On the set-up: species or system mouse. As to conditions: in vivo administration following radiation. From the text: To determine if the stem cells are better regenerated, freshly harvested BM cells were stained with CD24, CD34 (two critical markers for BM multi-potential progenitors) and TER119 (a marker for reticulcoytes), and then analyzed with flow cytometry. […] This is consistent with the above in vitro data. After IR, there appears a very active generation of BM progenitors, a rebound phenomenon, similar to the intestine crypts that actively regenerate following IR to compensate for lost villi.

Data set [2] in a line: Toxicity of FGF-P (LD50/14 experiments). In kind it is in vivo, mouse (Balb/c). As to the method: Standard LD50/14 experiments have been performed. Up to 400 mg/kg of FGF-P was injected into Balb/c mice. No obvious signs of illness were observed. […] Thus, even the maximum NOAEL (no observed adverse effect level) could not be found. […] This observation is not surprising since similar observations have been made previously with human FGF-2 in mice (9-14) Likewise, it has been shown that in various disease states the level of FGF in humans is commonly 100 times the normal baseline.
A useful mitigator can be effective even given 8-24 hours IR exposure because of the time required for distribution. Therefore, FGF-P given at 8 hour after 7.1 Gy IR was tested.

The nature of data set [3]: Plasma endotoxin after sub-TBI (tachypleus amebocyte lysate kit). As to conditions: Balb/c, 10.5 Gy sub-TBI, 3.5 days post-IR; FGF-P treated (vehicle 3.32, normal 0.45). Type of data set: in vivo, mouse (Balb/c, C57BL/6). The protocol: Some studies have employed bacterial culture of liver samples. Bacterial translocation occurs due to mucosal barrier changes (1) at the level of the basement membrane and (2) bowel mucous volume and composition. The most reliable and most clinically applicable method to measure bacterial translocation is the endotoxin assay. The level of plasma endotoxin 3.5 days post-IR was measured with a commercialized kit that utilized tachypleus amebocyte lysate to sensitively quantitate endotoxin at extremely low levels (<0.01 EU/ml); and 4) body weight (BW): poor nutrition and water absorption will result in reduced body weight. The rate and severity of weight loss, as well as the pace of body weight recovery, will be measured.
2) A standard scoring scale was used to evaluate stool formation (diarrhea). The bowel was extracted from the abdomen and visually inspected. Formed stool was easily distinguished from semi-solid and liquid stool as it passed from the ascending to descending colon. FIGS. 7B and 7C show the irradiated bowel in controls compared with FGF-P-treated Balb/c mice. The FGF-P was given at a dose of 2 mg/kg im for three daily doses beginning 15 min after irradiation. Animals were sacrificed 3.5 days after 10.5 Gy sub-TBI.

The next data set deals with ERK Pathway. Nature of the data set: Phosphorylation of ERK pathway. Type of data set: cell-based.
For a further data set, the target named is human FGFR1 (Homo sapiens, UniProt P11362). Nature of the data set: Biacore binding assay.
Sequence of human FGFR1 (P11362 22-822): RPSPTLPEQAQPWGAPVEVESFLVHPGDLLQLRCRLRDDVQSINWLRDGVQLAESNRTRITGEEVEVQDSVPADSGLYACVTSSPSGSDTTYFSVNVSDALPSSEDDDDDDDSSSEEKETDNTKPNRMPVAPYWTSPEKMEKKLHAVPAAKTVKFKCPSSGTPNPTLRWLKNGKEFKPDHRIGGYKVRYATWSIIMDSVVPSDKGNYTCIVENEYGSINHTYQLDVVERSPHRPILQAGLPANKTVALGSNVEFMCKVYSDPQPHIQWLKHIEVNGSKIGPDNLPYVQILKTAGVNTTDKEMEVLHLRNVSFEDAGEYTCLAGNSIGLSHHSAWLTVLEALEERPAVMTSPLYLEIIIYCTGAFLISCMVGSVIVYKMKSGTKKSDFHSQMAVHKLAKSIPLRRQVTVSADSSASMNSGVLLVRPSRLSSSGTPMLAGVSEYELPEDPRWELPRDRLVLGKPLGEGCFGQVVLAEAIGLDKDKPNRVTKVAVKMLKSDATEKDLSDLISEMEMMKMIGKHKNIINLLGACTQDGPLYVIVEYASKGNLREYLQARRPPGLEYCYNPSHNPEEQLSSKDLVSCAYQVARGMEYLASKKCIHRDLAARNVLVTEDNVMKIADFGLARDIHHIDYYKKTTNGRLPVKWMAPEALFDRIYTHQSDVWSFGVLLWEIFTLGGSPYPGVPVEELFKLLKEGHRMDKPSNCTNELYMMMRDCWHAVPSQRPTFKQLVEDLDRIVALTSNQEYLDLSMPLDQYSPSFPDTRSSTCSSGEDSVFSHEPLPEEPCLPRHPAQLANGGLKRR

Take `CC(C)C[C@H](NC(=O)[C@H](C)NC(=O)[C@@H](NC(=O)[C@H](Cc1ccc(O)cc1)NC(=O)[C@H](Cc1c[nH]c2ccccc12)NC(=O)[C@H](CO)NC(=O)[C@H](CO)NC(=O)[C@H](Cc1ccc(O)cc1)NC(=O)[C@H](CCCCN)NC(=O)[C@H](CCCNC(=N)N)NC(=O)[C@H](CO)NC(=O)[C@H](CCCNC(=N)N)NC(=O)[C@H](Cc1ccc(O)cc1)NC(=O)[C@@H](N)CS)C(C)C)C(=O)N[C@@H](CCCCN)C(=O)N[C@@H](CCCNC(=N)N)C(=O)N[C@@H](CS)C(=O)O` [FGF-P, CYRSRKYSSWYVALKRC] (H-CYRSRKYSSWYVALKRC-OH; N-terminus and C-terminus assumed): in the data set on BM cells, the “growth of BM cells” value is “stimulated the growth of BM cells in a similar pattern as TPO, EPO and GM-CSF”. In data set [1] (7.1 Gy TBI, 15, 30, 60 mg/kg tested), the “dose achieving best result” value is recorded as 60 mg/kg. Further, the “dose dependence of mitigation effect” value in data set [1] (7.1 Gy TBI, FGF-P 15, 30, 60 mg/kg) is recorded as “dose-dependent effect”. Besides, in [1] (Balb/c, 6.5, 7 and 7.5 Gy TBI, FGF-P 1 mg/kg IM right after TBI, daily for 5 days), the “mitigation effect on ARS, DMF” value is on record as “DMF similar to that of native FGF2”. For the same molecule, the mice survived in data set [1] (6.5 Gy TBI) is listed as 87%; in [1] (7.5 Gy TBI), 66%. The “mitigation effect with delayed delivery” value in [1] (FGF-P given 8 hour after 7.1 Gy IR) is “still effective”. The enzyme resistance entry in “Stability of FGF-P” (dry powder) is “enzyme-resistant as a dry powder”. In the data set “Stability of FGF-P” (severe conditions / liquid, boiling), the stability result is given as “stable as a liquid even with boiling; also recorded: stable under severe conditions, for example to boiling”. For the same molecule, in “Stability of FGF-P” (stability test, boiled vs original form), the “effectiveness of boiled FGF-P” value is given as “as effective as the original form”. In addition, the “plasma GM-CSF” value in the data set with GM-CSF is “increased the IR-reduced GM-CSF”. Moreover, the “number of BM progenitors (CD24, CD34)” value in the data set on BM progenitors is on record as “increased the number of BM progenitors following radiation”. Moreover, in data set [2] (Balb/c mice, up to 400 mg/kg), the body weight entry is on record as “body weight did not decrease”. Besides, the “dose tolerated well without any signs of sickness” value in data set [2] (mice) is “up to 4 gram/kg”. In data set [2] (mouse, in vivo, Balb/c mice, LD50/14 experiments, read-out: injected dose with no obvious signs of illness (maximum NOAEL could not be found)), the NOAEL at 14 days is ≤ 400 mg/kg. Further, the “plasma endotoxin level (mean)” value in [3] was 2.12 EU/ml. The “phosphorylation of ERK pathway” value in the data set on ERK Pathway is reported as “triggers phosphorylation of ERK Pathway”. In addition, the “binding to human FGFR1” value at human FGFR1 is reported as “binding of FGF-P to human FGFR1”.
